According to patent US5132309A, “2-oxo-3,8-diazaspiro(4,5)decane derivatives, pharmaceutical compositions containing them and process for preparing same” (Richter Gedeon Vegyeszeti Gyar RT, priority 1989, dated 1992):
Like-named read-outs stand apart in the source and are kept apart here.

Key:
[1] = test system: apomorphine-induced locomotor hyperactivity and stereotypy; experiment: Inhibition of the apomorphine-induced locomotor hyperactivity and stereotypy; type: in vivo, male Hannover-Wistar rats; settings: rat, 2.5 mg/kg oral; for Inhibition of apomorphine-induced LMA as percentage of the control / Inhibition of apomorphine-induced stereotypy as percentage of the control: apomorphine hydrochloride 1 mg/kg s.c.; for Inhibition of apomorphine-induced LMA as percentage of the control: control LMA 100% (438.9 ± 54.7 sec); for Inhibition of apomorphine-induced stereotypy as percentage of the control: control stereotypy 100% (105.0 ± 13.7 sec)
Excerpt: Apomorphine induces a characteristic syndrome in rats and various animal species which manifests itself in the hyperactivity and stereotypic behavior of the animals [J. Pharm. Pharmacol. 19 627 (1957); J. Neurol. Transm. 40, 97 (1977); J. Psychiat. Res. 11, 1 (1974); J. Pharm. Pharmacol. 25, 1003 (1973); as well as Nature 263, 338 (1976)].
Male Hannover-Wistar rats weighing 160 to 180 g were used in these examinations. The test compounds were suspended in a 2% Tween 80 solution and diluted to the desired concentration by adding distilled water. The corresponding dose was administered to rats in a volume of 5 ml/kg. The control group was treated with the above solution containing no test substance.
One hour following the treatment with 2.5 mg/kg oral dose of the test compound, the rats were subcutaneously treated with 1 mg/kg of apomorphine hydrochloride.
At 15 minutes after administration of apomorphine, the animals were placed in a 5-channel behavior-observing device controlled by a microprocessor and the coordinated and stereotypic motion of the animals were measured for 15 minutes. Chlozapine (chemically 8-chloro-11-(4-methyl-1-piperazinyl)-5H-dibenzo[b,e][1,4]diazepine) was used in a dose of 2.5 mg/kg as reference drug. The results are given as percentages of the control for both motion types.

[2] = Cataleptogenic (catalepsy-inducing) effect; set-up: species or system male Wistar rats; settings: in vivo; rat; oral; hourly for 6 hours
hypoxic memory damage = experiment: Inhibition of the hypoxic damage of the memory (nootropic effect), conditioned avoidance in Shuttle-box; type: in vivo, male spontaneously (genetically) hypertensive rats; settings: rat, hypoxia 6% oxygen
Excerpt: Male, spontaneously (genetically) hypertensive rats weighing 210 to 230 g were used in these examinations. The active avoiding behavior was developed in a 6-channel automated Shuttle-box by a training consisting of 30 cycles during 3 days. Within a single cycle an intermittent light stimulus of 1 Hz frequency for 15 seconds as conditioned stimulus and an electric stimulus of 0.8 mA for 10 seconds as unconditioned stimulus were used with an intersignal time of 15 seconds.
On the 4th day, one hour before the experiment the animals were treated with a 10 mg/kg oral dose of the test compounds. Two control groups were used in these examinations, one of which was treated with placebo whereas the other one was treated with placebo and exposed to hypoxia. Piracetam (chemically 2-oxo-1-pyrrolidineacetic acid amide) and dihydroergotoxine were used as reference drugs. The performance of the animals was examined under hypoxic conditions in such a way that the boxes were flown through at a rate of 200 ml/min/box with a gaseous mixture containing 6% by volume of oxygen and 94% by volume of nitrogen. The number of the conditioned avoidance responses (as abbreviated hereinafter: CAR) was counted. The protective effect of the compounds against the hypoxic memory damage was calculated by using the following formula: [formula] wherein
protective effect means the effect inhibiting the hypoxic memory damage expressed as percentage; and
CAR x means the average value of the number of conditioned responses in the animal group given.
The protective effect of the compounds against the hypoxic memory damage expressed as percentage of the control is shown in Table 2.

hypobaric hypoxia = experiment: Inhibition of the hypobaric hypoxia (survival time); type: in vivo, male spontaneously hypertensive rats; settings: for ED50: po, 1 h, read-out: Protection against hypobaric hypoxia, ED50
Description: Male, spontaneously hypertensive rats weighing 200 to 220 g were used in these investigations. Groups consisting of 3 animals each were placed into a desiccator of 6 liters by volume, the pressure was decreased to 170 Hgmm (22.66 kPa) within 20 seconds and continuously maintained at the same level. One hour before the examination, the animals were treated with various oral doses of the test compounds. The ED50 values (i.e. the doses prolonging the survival time of the test animals by 50% in comparison to that of the control group treated with placebo) were determined and summarized in Table 3.

[3] = test system: triethyl tin chloride-induced cerebral edema; experiment: Inhibition of the cerebral (brain) edema induced by triethyl tin chloride; type: in vivo, male Hannover-Wistar rats; settings: rat, TET 2.5 mg/kg daily for 5 days
Description: The cerebral edema-inhibiting effect of the compounds was investigated by the following method [Ann. Pharm. Fr. 42, 431 (1984)].
A group consisting of 7 male Hannover-Wistar rats weighing 180 to 200 g were daily treated with 2.5 mg/kg of triethyl tin chloride (hereinafter TET) for 5 days to induce a cerebral edema. [TET (Merck-Schuchardt, Darmstadt, FRG) was dissolved in distilled water under stirring and the animals were orally treated with the stirred solution daily at 7 a.m.].
The reference and test compounds were homogenized in a 0.5% by weight carboxymethylcellulose solution by using an Ultra Turrax stirrer and the stirring was continued during the administration, too. These compounds were orally given first 1 hour, then 6 hours after the TET treatment in a volume of 0.5 ml/100 g of body-weight in both cases. The control group received the solvent of TET (i.e. distilled water) and the carrier of the compounds (i.e. 0.5% by weight carboxymethylcellulose solution) at the same intervals and volumes as given above.
On the 5th day of treatments, 2 hours following the last administration of the test compound, the animals were decapitated, the whole brain was rapidly taken out, washed with cold, 0.9% by weight sodium chloride solution and the moisture was removed by filter paper. The wet weights of the brains were weighed with an accuracy of one tenth mg and placed onto an aluminum foil previously weighed. Subsequently, the brains were dried at 90° C. for 92 hours, then the total (gross) weight (i.e. the dry brain weight together with the weight of the aluminum foil) was determined. The water content of the brain and the change thereof, respectively, were calculated from the difference of the wet and dry brain weight. The change was expressed as percentage of the protection as follows: [formula] wherein (TET-Ko) means the mean water content (%) of the brain of animals treated with TET and carrier;
(TET-V) means the mean water content (%) of the brain of animals treated with TET and test compound;
(Veh-Ko) means the mean water content (%) of the brain of animals treated with distilled water and carrier.
The deviations of changes in the water content and dry weight of the brain were compared by using Student's "t" trial. Also here, piracetam and dihydroergotoxine were used as reference drugs.

Molecule | Inhibition of apomorphine-induced LMA as percentage of the control [1] | Inhibition of apomorphine-induced stereotypy as percentage of the control [1] | ED50 at 6 h [2] | Protection (brain water content, cerebral edema) ([3]; dose 100 umol/kg oral) | also measured
CN1C(=O)OC2(CCN(CCC=C(c3ccc(F)cc3)c3ccc(F)cc3)CC2)C1(C)O.Cl (stereo not drawn) [A, 8-[4,4-bis(4-fluorophenyl)-3-butenyl]-3,4-dimethyl-4-hydroxy-2-oxo-1-oxa-3,8-diazaspiro[4,5]decane hydrochloride] | -40 percentage of the control | 0 percentage of the control | > 300 mg/kg | – | –
CC1(O)N(Cc2ccccc2)C(=O)OC12CCN(CCC=C(c1ccc(F)cc1)c1ccc(F)cc1)CC2.Cl (stereo not drawn) [B, 3-benzyl-8-[4,4-bis(4-fluorophenyl)-3-butenyl]-4-hydroxy-4-methyl-2-oxo-1-oxa-3,8-diazaspiro[4,5]decane hydrochloride] | -25 percentage of the control | +15 percentage of the control | > 300 mg/kg | – | –
CC(C)(C)N1C(=O)OC2(CCN(CCC=C(c3ccc(F)cc3)c3ccc(F)cc3)CC2)C1(C)O.Cl (stereo not drawn) [C, 3-tert-butyl-8-[4,4-bis(4-fluorophenyl)-3-butenyl]-4-hydroxy-4-methyl-2-oxo-1-oxa-3,8-diazaspiro[4,5]decane hydrochloride] | – | – | – | 88.1% | Protection against amnesia (hypoxic memory damage; 10 mg/kg p.o.): 64%; ED50 (hypobaric hypoxia; rat, 170 Hgmm, dose prolonging survival time by 50% vs placebo control): 23.7 mg/kg; Protection (brain water content, cerebral edema) ([3]; dose 25 umol/kg oral): 97.9%; Protection (brain water content, cerebral edema) ([3]; dose 50 umol/kg oral): 102.0%
CN1CCN(C2=Nc3cc(Cl)ccc3Nc3ccccc32)CC1 [Clozapine, 8-chloro-11-(4-methyl-1-piperazinyl)-5H-dibenzo[b,e][1,4]diazepine, reference compound] | -25 percentage of the control | +11 percentage of the control | 31.9 mg/kg | – | inhibition of stereotypy (in words) [1]: did not inhibit the stereotypy
COc1ccc(CCN2C(=O)OC3(CCN(CCC=C(c4ccc(F)cc4)c4ccc(F)cc4)CC3)C2(C)O)cc1OC.O=C(O)/C=C\C(=O)O (stereo not drawn) [D, 8-[4,4-bis(4-fluorophenyl)-3-butenyl]-3-[2-(3,4-dimethoxyphenyl)ethyl]-4-hydroxy-4-methyl-2-oxo-1-oxa-3,8-diazaspiro[4,5]decane maleate] | – | – | – | 102.2% | –
CC1(O)NC(=O)OC12CCN(CCC=C(c1ccc(F)cc1)c1ccc(F)cc1)CC2.Cl (stereo not drawn) [E, 8-[4,4-bis(4-fluorophenyl)-3-butenyl]-4-hydroxy-4-methyl-2-oxo-1-oxa-3,8-diazaspiro[4,5]decane hydrochloride] | – | – | – | 114.3% | –
NC(=O)CN1CCCC1=O [PIR, 2-oxo-1-pyrrolidineacetic acid amide] | – | – | – | 16.7% | Protection against amnesia (hypoxic memory damage; 500 mg/kg p.o.): 85%; ED50 (hypobaric hypoxia; Rattus norvegicus): 293 mg/kg
dihydroergotoxine [DHE] | – | – | – | – | Protection against amnesia (hypoxic memory damage; 10 mg/kg p.o.): 63%; survival achieved at the high dose of DHE (hypobaric hypoxia; rat, 50.0 mg/kg p.o., hypobaric hypoxia): 40%; Protection against hypobaric hypoxia, ED50 (hypobaric hypoxia; rat, 170 Hgmm, dose prolonging survival time by 50% vs placebo control, 60 min): 50.0 mg/kg p.o.; Protection (brain water content, cerebral edema) ([3]; dose 30 mg/kg oral): 25.6%
